Legend:
[1] = system: muscarinic cholinergic receptors; assay: interaction with muscarinic cholinergic receptors; format: binding
I-adrenerigic receptors = assay: interaction with I-adrenergic receptors; format: binding
[2] = in vivo; cited from earlier work

Structure (SMILES): CCOc1ccccc1OC(c1ccccc1)C1CNCCO1 (stereo not shown) [Reboxetine]
- interaction with muscarinic cholinergic receptors [1]: without showing any appreciable interaction
- norepinephrine uptake inhibitory activity (norepinephrine uptake): highly selective norepinephrine uptake inhibitor
- monoamine oxidase (MAO) inhibitory activity (monoamine oxidase (MAO)): devoid of monoamine oxidase (MAO) inhibitory activity
- interaction with I-adrenerigic receptors (I-adrenerigic receptors): without showing any appreciable interaction
- serotonin uptake inhibitory activity (serotonin uptake): only marginal
- effect in the 8-OH-DPAT hypothermia test [2]: ineffective
- dopamine uptake inhibitory activity (dopamine uptake): no dopamine uptake inhibitory activity

— US6586427B2, “Treatments for nervous disorders” (Pharmacia & Upjohn Company, priority 1998, dated 2003)
